Source: patent US5985834A, “Nova- and decapeptides in the preparation of a drug for the treatment of aids” (ASTA Medica AG, priority 1993, dated 1999)

System: HIV virus
Experiment: Screening method for anti-HIV activity (NCI AIDS screening trial, XTT formazan, protection of virus-infected T4 lymphocytes)
Format: cell-based
Conditions: Human immunodeficiency virus 1, CCRF-CEM, infected culture treated, CEM cells, 6-7 days
Description: Description of the Screening Method for Anti-HIV Activity
The process is suitable for locating active substances which are effective in all phases of the virus proliferation cycle. The test principle is based on the destruction of the T4 lymphocytes by the HIV virus.
Small amounts of HIV virus are added to the cell cultures. At least two complete viral reproduction cycles are needed to destroy the T4 lymphocytes and to be able to evaluate the results.
Active substances that react with virions (virus-like particles), cells or with products of the viral genes in order to interact with viral activities and thus block proliferation of the viruses will protect the cells from destruction and lysis.
The test system is automated to permit examination of a large number of cells infected with viruses. Compounds which degenerate, denaturise or that are rapidly metabolised cannot, however, be reliably discovered using the test procedure.
AZT (azidothymidine) and DDC serve as positive controls for the test.
1. T4 lymphocytes (CEM cell line) are mixed with virus in the ratio of virus:cell of ca. 1:0.05 in microtiter plates.
2. […]
5. The individual cell cultures are analysed spectrophotometrically and examined microscopically to detect surviving cells in order to confirm the protective effect. […]
7. The activity of the tested compound is determined. […]

With `Cc1cn([C@H]2C[C@H](N=[N+]=[N-])[C@@H](CO)O2)c(=O)[nH]c1=O` [AZT, 3'-azido-3'-desoxythymidine] the EC50 was 3.1 nM.
